Source: ChEMBL document CHEMBL3044740, “Syntheses and evaluation of 2,5-disubstituted 4-thiazolidinone analogues as antimicrobial agents” (2012)
Active and inactive are the calls of the source. No cut-off for these calls is given here.

What was measured:
Assay type in all cases: functional
Escherichia coli [1] = assay: Antibacterial activity against Escherichia coli MTCC 739 at 200 ug/ml by cup-plate method; conditions: read-out: DIZ
Escherichia coli [2] = assay: Antibacterial activity against Escherichia coli MTCC 739 at 50 ug/ml by cup-plate method; conditions: read-out: DIZ
Pseudomonas aeruginosa [3] = assay: Antibacterial activity against Pseudomonas aeruginosa MTCC 2453 at 300 ug/ml by cup-plate method; conditions: read-out: DIZ
Staphylococcus aureus [4] = assay: Antibacterial activity against Staphylococcus aureus MTCC 96 at 100 ug/ml by cup-plate method; conditions: read-out: DIZ
Escherichia coli [5] = assay: Antibacterial activity against Escherichia coli MTCC 739 at 300 ug/ml by cup-plate method; conditions: read-out: DIZ
Candida albicans [6] = assay: Antifungal activity against Candida albicans MTCC 227 at 300 ug/ml by cup-plate method; conditions: for zone of inhibition at 300 µg/mL: read-out: DIZ
Candida albicans [7] = assay: Antifungal activity against Candida albicans MTCC 227 at 50 ug/ml by cup-plate method; conditions: for zone of inhibition at 50 µg/mL: read-out: DIZ
Staphylococcus aureus [8] = assay: Antibacterial activity against Staphylococcus aureus MTCC 96 at 50 ug/ml by cup-plate method; conditions: read-out: DIZ
Pseudomonas aeruginosa [9] = assay: Antibacterial activity against Pseudomonas aeruginosa MTCC 2453 at 50 ug/ml by cup-plate method; conditions: read-out: DIZ
Bacillus subtilis [10] = assay: Antibacterial activity against Bacillus subtilis MTCC 121 at 200 ug/ml by cup plate method; conditions: read-out: DIZ
Staphylococcus aureus [11] = assay: Antibacterial activity against Staphylococcus aureus MTCC 96 at 300 ug/ml by cup-plate method; conditions: read-out: DIZ
Candida albicans [12] = assay: Antifungal activity against Candida albicans MTCC 227 at 100 ug/ml by cup-plate method; conditions: for zone of inhibition at 100 µg/mL: read-out: DIZ
Pseudomonas aeruginosa [13] = assay: Antibacterial activity against Pseudomonas aeruginosa MTCC 2453 at 100 ug/ml by cup-plate method; conditions: read-out: DIZ
Bacillus subtilis [14] = assay: Antibacterial activity against Bacillus subtilis MTCC 121 at 50 ug/ml by cup plate method; conditions: read-out: DIZ
Staphylococcus aureus [15] = assay: Antibacterial activity against Staphylococcus aureus MTCC 96 at 200 ug/ml by cup-plate method; conditions: read-out: DIZ
Escherichia coli [16] = assay: Antibacterial activity against Escherichia coli MTCC 739 at 100 ug/ml by cup-plate method; conditions: read-out: DIZ
Pseudomonas aeruginosa [17] = assay: Antibacterial activity against Pseudomonas aeruginosa MTCC 2453 at 200 ug/ml by cup-plate method; conditions: read-out: DIZ
Candida albicans [18] = assay: Antifungal activity against Candida albicans MTCC 227 at 200 ug/ml by cup-plate method; conditions: for zone of inhibition at 200 µg/mL: read-out: DIZ
Bacillus subtilis [19] = assay: Antibacterial activity against Bacillus subtilis MTCC 121 at 300 ug/ml by cup plate method; conditions: read-out: DIZ
Bacillus subtilis [20] = assay: Antibacterial activity against Bacillus subtilis MTCC 121 at 100 ug/ml by cup plate method; conditions: read-out: DIZ

| Compound | zone of inhibition at 200 µg/mL (Escherichia coli [1]) [mm] | zone of inhibition at 50 µg/mL (Escherichia coli [2]) [mm] | zone of inhibition at 300 µg/mL (Pseudomonas aeruginosa [3]) [mm] | zone of inhibition at 100 µg/mL (Staphylococcus aureus [4]) [mm] | zone of inhibition at 300 µg/mL (Escherichia coli [5]) [mm] | zone of inhibition at 50 µg/mL (Staphylococcus aureus [8]) [mm] | zone of inhibition at 50 µg/mL (Pseudomonas aeruginosa [9]) [mm] | zone of inhibition at 200 µg/mL (Bacillus subtilis [10]) [mm] | zone of inhibition at 300 µg/mL (Staphylococcus aureus [11]) [mm] | zone of inhibition at 100 µg/mL (Pseudomonas aeruginosa [13]) [mm] | zone of inhibition at 50 µg/mL (Bacillus subtilis [14]) [mm] | zone of inhibition at 200 µg/mL (Staphylococcus aureus [15]) [mm] | zone of inhibition at 100 µg/mL (Escherichia coli [16]) [mm] | zone of inhibition at 200 µg/mL (Pseudomonas aeruginosa [17]) [mm] | zone of inhibition at 300 µg/mL (Bacillus subtilis [19]) [mm] | zone of inhibition at 100 µg/mL (Bacillus subtilis [20]) [mm] | diameter of the inhibition zone (DIZ) (Candida albicans [6]) | diameter of the inhibition zone (DIZ) (Candida albicans [7]) | diameter of the inhibition zone (DIZ) (Candida albicans [12]) | diameter of the inhibition zone (DIZ) (Candida albicans [18]) | other results |
| --- | --- | --- | --- | --- | --- | --- | --- | --- | --- | --- | --- | --- | --- | --- | --- | --- | --- | --- | --- | --- | --- |
| O=C1N/C(=N\c2ccccc2[N+](=O)[O-])S/C1=C\c1ccccc1[N+](=O)[O-] | 10 | 8 | 13 | 10 | 11 | 10 | 10 | 10 | 14 | 10 | 9 | 13 | 8 | 13 | 10 | 9 |  |  |  |  | zone of inhibition at 300 µg/mL (Candida albicans [6]): 26 mm; zone of inhibition at 50 µg/mL (Candida albicans [7]): 10 mm; zone of inhibition at 100 µg/mL (Candida albicans [12]): 16 mm; zone of inhibition at 200 µg/mL (Candida albicans [18]): 23 mm |
| O=C1N/C(=N\c2ccccc2[N+](=O)[O-])S/C1=C\c1cccc([N+](=O)[O-])c1 | 13 | 10 | 16 | 10 | 15 | 8 | 10 | 20 | 16 | 11 | 7 | 14 | 8 | 15 | 22 | 15 |  |  |  |  | zone of inhibition at 300 µg/mL (Candida albicans [6]): 16 mm; zone of inhibition at 50 µg/mL (Candida albicans [7]): 10 mm; zone of inhibition at 100 µg/mL (Candida albicans [12]): 12 mm; zone of inhibition at 200 µg/mL (Candida albicans [18]): 14 mm |
| O=C1N/C(=N\c2ccc([N+](=O)[O-])cc2)S/C1=C\c1ccccc1 | 13 | 11 | 13 | 13 | 15 | 12 | 10 | 13 | 16 | 10 | 11 | 14 | 12 | 11 | 15 | 12 | inactive | inactive | inactive | inactive |  |
| COc1cc(/C=C2\S/C(=N/c3ccc([N+](=O)[O-])cc3)NC2=O)ccc1O | 12 | 11 | 17 | 15 | 13 | 14 | 14 | 14 | 17 | 15 | 11 | 16 | 12 | 15 | 15 | 12 | inactive | inactive | inactive | inactive |  |
| O=C1N/C(=N\c2ccc([N+](=O)[O-])cc2)S/C1=C\c1ccc(Cl)cc1 | 16 | 15 | 14 | 14 | 18 | 13 | 11 | 17 | 17 | 12 | 15 | 15 | 16 | 13 | 18 | 16 | inactive | inactive | inactive | inactive |  |
| O=C1N/C(=N\c2ccc([N+](=O)[O-])cc2)S/C1=C\c1cccc([N+](=O)[O-])c1 | 12 | 11 | 12 | 15 | 12 | 11 | 10 | 13 | 17 | 11 | 11 | 16 | 11 | 12 | 15 | 12 | inactive | inactive | inactive | inactive |  |
